According to paper PMC10322702 (Nature Chemistry, 2023):
Values joined by “and” are separate entries in the source; they are usually repeats but may differ in a detail not shown here. Equal values may be shown once. Numbered stars: 1 amine (or outer) side, 2 acyl side, 3 side chain; on linkers, the order of the positions; unused ones are H or OH. Bridge positions count the residues as written; N and C are the ends. Square brackets hold non-standard residues; d marks the D form. Peptide text beside a SMILES is read from it. Acbc(cis-1,3) = O=C([C@H]1C[C@@H](N[*:1])C1)[*:2]; X1 = O=C([C@@H]1CC[C@H](N[*:1])C1)[*:2]

Legend:
SARS-CoV-2 M^pro [1] = biological target: T1, SARS-CoV-2 M^pro (Severe acute respiratory syndrome coronavirus 2, UniProt P0DTD1); assay: biochemical; type: binding; conditions: for kon: read-out: ka (kinetic association)
SARS-CoV-2 M^pro [2] = biological target: T1, SARS-CoV-2 M^pro; assay: biochemical; type: biochemical
[3] = Serum stability assay in human serum (LC/MS)
[4] = 37 °C, incubation time 1 h, relative to 0 h = 100%, technical replicates, 60 min
[5] = 37 °C, incubation time 2 h, relative to 0 h = 100%, technical replicates, 120 min
[6] = 37 °C, incubation time 4 h, relative to 0 h = 100%, technical replicates, 240 min
[7] = 37 °C, incubation time 8 h, relative to 0 h = 100%, technical replicates, 480 min
[8] = 37 °C, incubation time 24 h, relative to 0 h = 100%, technical replicates, 1440 min
[9] = 37 °C, incubation time 50 h, relative to 0 h = 100%, technical replicates, 3000 min
[10] = human, Remaining peptide (%), 37 °C, incubation time 1 h, relative to 0 h = 100%, technical replicates
[11] = human, Remaining peptide (%), 37 °C, incubation time 2 h, relative to 0 h = 100%, technical replicates
[12] = human, Remaining peptide (%), 37 °C, incubation time 4 h, relative to 0 h = 100%, technical replicates
[13] = human, Remaining peptide (%), 37 °C, incubation time 8 h, relative to 0 h = 100%, technical replicates
[14] = human, Remaining peptide (%), 37 °C, incubation time 24 h, relative to 0 h = 100%, technical replicates
[15] = human, Remaining peptide (%), 37 °C, incubation time 50 h, relative to 0 h = 100%, technical replicates

SMILES	Kd (SARS-CoV-2 M^pro [1])	IC50 (SARS-CoV-2 M^pro [2])	inhibition of M^pro (in words) (SARS-CoV-2 M^pro [2])	kd (kinetic dissociation) (SARS-CoV-2 M^pro [1])	kon (SARS-CoV-2 M^pro [1])	inhibition at 16.6 µM (SARS-CoV-2 M^pro [2])	inhibition at 50.1 µM (SARS-CoV-2 M^pro [2])	also measured
CC(C)C[C@@H]1NC(=O)[C@H](CC(N)=O)NC(=O)[C@H](CC(C)C)NC(=O)[C@H]2C[C@H](C2)NC(=O)[C@H](C)NC(=O)[C@H](Cc2ccccc2)NC(=O)[C@@H](Cc2ccc(O)cc2)NC(=O)CSC[C@H](C(N)=O)NC(=O)CNC(=O)[C@@H]2CCCN2C(=O)[C@H](CCCNC(=N)N)NC(=O)[C@H](Cc2ccc(O)cc2)NC(=O)CNC1=O [GM4H3A] ({CH2CO}-[dY]FA[Acbc(cis-1,3)]LNLGYRPG[dC]-NH2; thioether N-13)	> 10000 nM	> 25000 nM	no inhibition	–	–	–	–	–
CC(C)C[C@@H]1NC(=O)[C@H](CC(N)=O)NC(=O)[C@H](CC(C)C)NC(=O)[C@H]2C[C@H](C2)NC(=O)[C@H](CCC(=O)O)NC(=O)[C@H](Cc2ccccc2)NC(=O)[C@@H](Cc2ccc(O)cc2)NC(=O)CSC[C@H](C(N)=O)NC(=O)CNC(=O)[C@@H]2CCCN2C(=O)[C@H](CCCNC(=N)N)NC(=O)[C@H](Cc2ccc(O)cc2)NC(=O)CNC1=O [GM4H3E] ({CH2CO}-[dY]FE[Acbc(cis-1,3)]LNLGYRPG[dC]-NH2; thioether N-13)	360 nM	> 25000 nM	observed only with the highest tested concentration (25 µM)	7.1 10^-3 s^-1	20000 M⁻¹ s⁻¹	–	–	–
CC(C)C[C@@H]1NC(=O)[C@H]([C@@H](C)O)NC(=O)[C@H](Cc2ccc(O)cc2)NC(=O)[C@H]([C@@H](C)O)NC(=O)[C@H](Cc2c[nH]cn2)NC(=O)[C@@H]2CCCN2C(=O)[C@@H]2CCCN2C(=O)[C@H](Cc2ccccc2)NC(=O)[C@H](C)NC(=O)[C@H](Cc2c[nH]cn2)NC(=O)[C@H](Cc2ccccc2)NC(=O)[C@@H](Cc2ccc(O)cc2)NC(=O)CSC[C@H](C(N)=O)NC1=O [GM1γ^14A] ({CH2CO}-[dY]FHAFPPHTYTL[dC]-NH2; thioether N-13)	10 nM	> 5000 nM	inhibition was ablated	3.2 10^-3 s^-1	320000 M⁻¹ s⁻¹	–	–	fold change in binding affinity relative to the original peptide (SARS-CoV-2 M^pro [1]): fourfold weaker; Remaining peptide (%) [3, 4]: 87.05% and 85.28%; Remaining peptide (%) [3, 5]: 71.54% and 71.96%; Remaining peptide (%) [3, 6]: 65.45% and 64.12%; Remaining peptide (%) [3, 7]: 51.43% and 52.89%; Remaining peptide (%) [3, 8]: 25.58% and 25.19%; Remaining peptide (%) [3, 9]: 4.30% and 4.38%; half-life at 10 μM ([3]; human): 498 min; remaining at 1 h, 10 μM [3, 10]: 84.3%; remaining at 2 h, 10 μM [3, 11]: 70.6%; remaining at 4 h, 10 μM [3, 12]: 63.2%; remaining at 8 h, 10 μM [3, 13]: 56.1%; remaining at 24 h, 10 μM [3, 14]: 26.4%; remaining at 50 h, 10 μM [3, 15]: 4.46%
CC[C@H](C)[C@@H]1NC(=O)[C@H](Cc2ccc(O)cc2)NC(=O)[C@H]([C@@H](C)O)NC(=O)[C@H](C)NC(=O)[C@@H]2CC[C@@H](C2)NC(=O)[C@H](CO)NC(=O)[C@H]([C@@H](C)O)NC(=O)[C@H](Cc2ccc(O)cc2)NC(=O)[C@H](Cc2ccccc2)NC(=O)[C@H](Cc2c[nH]cn2)NC(=O)[C@H](CC(C)C)NC(=O)[C@@H](Cc2ccc(O)cc2)NC(=O)CSC[C@H](C(N)=O)NC(=O)[C@@H]2CCCN2C(=O)[C@H](Cc2ccc(O)cc2)NC1=O [GM7, ^AcyLHFYTSγ^2ATYIYPc-NH2] ({CH2CO}-[dY]LHFYTS[X1]ATYIYP[dC]-NH2; thioether N-15)	490 nM	7930 nM	–	23 10^-3 s^-1	48000 M⁻¹ s⁻¹	–	–	inhibition at 25.1 µM (SARS-CoV-2 M^pro [2]): 96%
CC[C@H](C)[C@@H]1NC(=O)[C@H](Cc2ccc(O)cc2)NC(=O)[C@H](CC(C)C)NC(=O)[C@H](CC(=O)O)NC(=O)[C@H](CCCNC(=N)N)NC(=O)[C@H](Cc2ccccc2)NC(=O)[C@H](C)NC(=O)[C@H](Cc2c[nH]cn2)NC(=O)[C@H](Cc2ccccc2)NC(=O)[C@@H](Cc2ccc(O)cc2)NC(=O)CSC[C@H](C(N)=O)NC(=O)CNC(=O)[C@H](CC(C)C)NC1=O [GM5γ^24A] ({CH2CO}-[dY]FHAFRDLYILG[dC]-NH2; thioether N-13)	61 nM	50 nM	–	8.7 10^-3 s^-1	140000 M⁻¹ s⁻¹	100%	100%	inhibition at 1.86 µM (SARS-CoV-2 M^pro [2]): 100%; inhibition at 5.62 µM (SARS-CoV-2 M^pro [2]): 100%; inhibition at […] (SARS-CoV-2 M^pro [2]): 100%; Remaining peptide (%) [3, 4]: 85.94% and 86.10%; Remaining peptide (%) [3, 5]: 65.85% and 75.80%; Remaining peptide (%) [3, 6]: 83.58% and 80.89%; Remaining peptide (%) [3, 7]: 69.62% and 72.73%; Remaining peptide (%) [3, 8]: 51.61% and 49.70%; Remaining peptide (%) [3, 9]: 25.37% and 24.58%; Remaining peptide (%) ([3]; 37 °C, incubation time 100 h, relative to 0 h = 100%, technical replicates, 6000 min): 8.38% and 8.41%; half-life at 10 μM ([3]; human): 1260 min; remaining at 1 h, 10 μM [3, 10]: 89.2%; remaining at 2 h, 10 μM [3, 11]: 75.3%; remaining at 4 h, 10 μM [3, 12]: 82.3%; remaining at 8 h, 10 μM [3, 13]: 70.9%; remaining at 24 h, 10 μM [3, 14]: 45.5%; remaining at 50 h, 10 μM [3, 15]: 23%; remaining at 100 h, 10 μM ([3]; human, Remaining peptide (%), 37 °C, incubation time 100 h, relative to 0 h = 100%, technical replicates): 7.6%
CC(C)C[C@@H]1NC(=O)[C@H](CC(N)=O)NC(=O)[C@H](CC(C)C)NC(=O)[C@H](CC(N)=O)NC(=O)[C@H](Cc2c[nH]cn2)NC(=O)[C@H](Cc2ccccc2)NC(=O)[C@@H](Cc2ccc(O)cc2)NC(=O)CSC[C@H](C(N)=O)NC(=O)CNC(=O)[C@@H]2CCCN2C(=O)[C@H](CCCNC(=N)N)NC(=O)[C@H](Cc2ccc(O)cc2)NC(=O)CNC1=O [GM4γ^14N] ({CH2CO}-[dY]FHNLNLGYRPG[dC]-NH2; thioether N-13)	480 nM	1000 nM	–	9.5 10^-3 s^-1	20000 M⁻¹ s⁻¹	100%	100%	fold less active than GM4 (M^pro inhibition) (SARS-CoV-2 M^pro [2]): 20 fold
CC[C@H](C)[C@@H]1NC(=O)[C@H](Cc2ccccc2)NC(=O)[C@@H](Cc2ccc(O)cc2)NC(=O)CSC[C@H](C(N)=O)NC(=O)[C@H]([C@@H](C)CC)NC(=O)[C@@H]2CCCN2C(=O)[C@H](CC(C)C)NC(=O)[C@H]2C[C@H](C2)NC(=O)[C@H](Cc2c[nH]cn2)NC(=O)[C@@H]2CCCN2C(=O)[C@H](CC(=O)O)NC(=O)[C@H](Cc2c[nH]cn2)NC(=O)[C@H](Cc2ccccc2)NC(=O)[C@H]([C@@H](C)CC)NC(=O)[C@H]([C@@H](C)O)NC(=O)[C@H](Cc2c[nH]cn2)NC1=O [GM6] ({CH2CO}-[dY]FIHTIFHDPH[Acbc(cis-1,3)]LPI[dC]-NH2; thioether N-16)	82 nM	2280 nM	–	6.4 10^-3 s^-1	78000 M⁻¹ s⁻¹	100%	100%	inhibition at 5.5 µM (SARS-CoV-2 M^pro [2]): 90.2%
